Experimental data published in patent US20120135451A1, “Method and Apparatus for Evaluation of Toxicity” (BIOPHOS SA, priority 2009, published 2012).
Like-named read-outs stand apart in the source and are kept apart here.

Test system: boar spermatozoa
Experiment: Toxicity evaluation by motility of boar spermatozoa (Qualisperm)
Format: cell-based
Conditions: 30 minutes incubation, around 60 million/ml boar spermatozoa
Description: Quadruple samples of each test compound were prepared in varying concentrations by serial dilution in a 96 microwell-plate by serial dilution into XCell with DMSO. Equal volumes (50 μl) of boar spermatozoa in a concentration of around 60 million/ml were added to all sample solutions. Subsequently, the microwell plate was shaken and incubated for 30 minutes. The dosing was performed by using an automated TECAN® robot. After the incubation the sample solutions were pipetted on a Leja® slide and the motility of the spermatozoa was analysed using a Qualisperm® apparatus from Biophos AG. A dose response curve was obtained where % motile spermatozoa (all the moving spermatozoa), % progressive spermatozoa (share of spermatozoa above a pre-determined threshold, here: above 25 μm/sec), or mean speed of total motile spermatozoa was plotted as a function of the logarithmic concentration of the test compound expressed in mM. From the dose curve IC50 values were calculated.

With CC(C)C(=O)Nc1ccc([N+](=O)[O-])c(C(F)(F)F)c1 [Flutamide] the IC50 (0.5 h, % motile spermatozoa (all moving spermatozoa), read-out: IC50 % motille) was 95 µM, the IC50 (0.5 h, % progressive spermatozoa (above 25 μm/sec), read-out: IC50 % progressiv) was 62 µM and the IC50 (0.5 h, mean speed of total motile spermatozoa, read-out: IC50 mean speed) was 72 µM.

Compound CC(=O)N1CCN(c2ccc(OCC3COC(Cn4ccnc4)(c4ccc(Cl)cc4Cl)O3)cc2)CC1 (stereo not drawn) [Ketokonazole, Ketoconazole] has an IC50 (% motile spermatozoa (all moving spermatozoa), read-out: IC50 % motille) of 209 µM, an IC50 (% progressive spermatozoa (above 25 μm/sec), read-out: IC50 % progressiv) of 205 µM and an IC50 (mean speed of total motile spermatozoa, read-out: IC50 mean speed) of 197 µM.
